Measurements: PubChem BioAssay AID1259407 (Chemical Carcinogenesis Research Information System (CCRIS), 2018)
Active and inactive are the calls of the source. No rule for the calls is given here.

Tested on: CCRIS mutagenicity, Ames/micronucleus/aberration tests
Test: CCRIS mutagenicity studies
Conditions: Test System: AMES SALMONELLA TYPHIMURIUM

COc1c(C(C)(C)C)cc([N+](=O)[O-])c(C)c1[N+](=O)[O-]
mutagenic call (Strain/Indicator: TA98, Metabolic Activation: HAMSTER, LIVER, S-9, AROCLOR 1254 (10%), Method: PREINCUBATION): inactive; negative
mutagenic call (Strain/Indicator: TA98, Metabolic Activation: NONE, Method: PREINCUBATION): inactive; negative
mutagenic call (Strain/Indicator: TA98, Metabolic Activation: NONE, Method: STANDARD PLATE): inactive; negative
mutagenic call (Strain/Indicator: TA98, Metabolic Activation: RAT, LIVER, AROCLOR 1254, Method: STANDARD PLATE): inactive; negative
mutagenic call (Strain/Indicator: TA98, Metabolic Activation: RAT, LIVER, S-9, AROCLOR 1254 (10%), Method: PREINCUBATION): inactive; negative
mutagenic call (Strain/Indicator: TA98, Metabolic Activation: RAT, LIVER, S-9, AROCLOR 1254, Method: PREINCUBATION): inactive; negative
mutagenic call (Strain/Indicator: TA98, Metabolic Activation: RAT, LIVER, S-9, AROCLOR 1254, Method: STANDARD PLATE): inactive; negative
mutagenic call (Strain/Indicator: TA100 (NR), Metabolic Activation: NONE, Method: STANDARD PLATE): inactive; negative
mutagenic call (Strain/Indicator: TA100(NR), Metabolic Activation: RAT LIVER S-9, AROCLOR 1254, Method: STANDARD PLATE): inactive; negative
mutagenic call (Strain/Indicator: TA100, Metabolic Activation: HAMSTER, LIVER, S-9, AROCLOR 1254 (10%), Method: PREINCUBATION): inactive; negative
mutagenic call (Strain/Indicator: TA100, Metabolic Activation: NONE, Method: PREINCUBATION): inactive; negative
mutagenic call (Strain/Indicator: TA100, Metabolic Activation: NONE, Method: STANDARD PLATE): inactive; negative
mutagenic call (Strain/Indicator: TA100, Metabolic Activation: RAT LIVER S-9, AROCLOR 1254, Method: STANDARD PLATE): active; positive
mutagenic call (Strain/Indicator: TA100, Metabolic Activation: RAT, LIVER, S-9, AROCLOR 1254 (10%), Method: PREINCUBATION): inactive; negative
mutagenic call (Strain/Indicator: TA100, Metabolic Activation: RAT, LIVER, S-9, AROCLOR 1254, Method: PREINCUBATION): active; positive
mutagenic call (Strain/Indicator: TA100, Metabolic Activation: RAT, LIVER, S-9, AROCLOR 1254, Method: STANDARD PLATE): active; positive
mutagenic call (Strain/Indicator: TA1535, Metabolic Activation: HAMSTER, LIVER, S-9, AROCLOR 1254 (10%), Method: PREINCUBATION): inactive; negative
mutagenic call (Strain/Indicator: TA1535, Metabolic Activation: NONE, Method: PREINCUBATION): inactive; negative
mutagenic call (Strain/Indicator: TA1535, Metabolic Activation: RAT, LIVER, S-9, AROCLOR 1254 (10%), Method: PREINCUBATION): inactive; negative
mutagenic call (Strain/Indicator: TA1537, Metabolic Activation: HAMSTER, LIVER, S-9, AROCLOR 1254 (10%), Method: PREINCUBATION): inactive; negative
mutagenic call (Strain/Indicator: TA1537, Metabolic Activation: NONE, Method: PREINCUBATION): inactive; negative
mutagenic call (Strain/Indicator: TA1537, Metabolic Activation: RAT, LIVER, S-9, AROCLOR 1254 (10%), Method: PREINCUBATION): inactive; negative
